# Results: US9683231B2, “RNAi-based method of drug screening and characterization” (Massachusetts Institute of Technology, priority 2010, dated 2017)
# Read-outs that look alike come from different tables or passages of the source.
# Tests used:
# [1] = system: lymphoma cells expressing shATM, shChk2 or shp53; experiment: shATM-Chk2-p53 resistance signature; format: cell-based, mouse
# Description: (3d) A comparison of the shTopoI and shTopoII response signatures for APG and NSC3852 with response signatures derived from established Topol (CPT and CPT11) and TopoII poisons (Dox, Mito and VP-16). […] In each case, one million cells were plated before treatment.
# Eμ-Mycp19^Arf−/− cells were counted and seeded at 1 million cells per ml in 48-well plates and treated with various concentrations of drugs. To approximate therapeutic situations in which drug dose decreases over time, half of the volume from each experiment was removed and replenished with fresh medium every 24 h. Cells were analyzed by fluorescence-activated cell sorting (FACS), with propidium iodide as a viability marker. LD80-90 of drugs are defined as concentrations at which the lowest viability reading out of three FACS time points (24, 48 and 72 h) is between 10% and 20%. After drug dose was determined, Eμ-Mycp19^Arf−/− cells were infected with retroviruses encoding shRNAs targeting particular genes. Individual infected cell populations were counted and seeded at 1 million cells per ml in 48-well plates and treated with drugs using the aforementioned protocol. At 72 h, treated and untreated cells were analyzed by flow cytometry. GFP percentages of live (PI-negative) cells were recorded and used to calculate relative resistance index.
# To compare the relative level of chemoresistance and sensitization conferred by each gene knockdown, the concept of RI (see definition above) was introduced, to more accurately analyze the GFP competition results. The value of RI is defined as X. The biological meaning of this factor X is that in a mixture of uninfected and infected (knockdown) cells, the infected (knockdown) cells will be X-fold as likely to survive drug treatment when compared to uninfected cells. By this definition of X, if one out of n uninfected cells survives a drug treatment, then X our of n infected cells should survive. If the total number of uninfected and infected cells are defined as T and the GFP percentage of untreated population are defined as G1, then the number of surviving, uninfected cells (un) can be defined as n−un=T×(1−G1)×1/n, and the number of surviving, infected cells (in) can be defined as n−in=Tx G1×X/n. […] From this equation, it can be derived that X=(G2−G1×G2)/(G1−G1×G2). This equation was used in the studies to compute RI values.
# [2] = system: γ-H2AX; experiment: DNA damage response by western blot (γ-H2AX phosphorylation) in TopoI and TopoII knockdown cells; format: cell-based
# [3] = system: Eμ-Mycp19^Arf−/− mouse lymphoma cells; experiment: Drug treatment and FACS viability (propidium iodide) to determine LD80-90; format: cell-based
# [4] = system: cells expressing shTopoI or shTopoII; experiment: shTopoI and shTopoII response signatures; format: cell-based, mouse; conditions: FIG. 3d
# [5] = system: shTopoII, shTopoI or vector control-expressing cells; experiment: Long-term survival assay, surviving cells 12 days after drug treatment; format: cell-based
# Source text: Identification and functional characterization of ill-defined genotoxic drugs. […] (3b) The shATM-Chk2-p53 response signature for apigenin (APG) and NSC3852 (NSC). (3c) The branching pattern for the 18 reference compounds plus APG and NSC. APG clusters with the TopoII poisons Dox and VP-16, whereas NSC clusters with the Topol poison CPT. (3d) A comparison of the shTopoI and shTopoII response signatures for APG and NSC3852 with response signatures derived from established Topol (CPT and CPT11) and TopoII poisons (Dox, Mito and VP-16). […] In each case, one million cells were plated before treatment. Data shown are mean±s.e.m. from three Independent experiments.
# [6] = system: Eμ-Mycp19^Arf−/− lymphoma cells expressing shRNAs targeting the Bcl2 family, p53 and its activating kinases; experiment: 29-shRNA GFP competition assay, resistance index (RI), clustering and K-nearest-neighbors; format: cell-based, mouse
# [7] = system: Bim; experiment: Bim expression level by western blot; format: cell-based, mouse; conditions: lymphoma cells treated for 6 or 9 hours
# Description: 9b, Lymphoma cells were treated with SAHA or DAC for 6 or 9 hours. Bim expression level was analyzed by western blot.
# [8] = suppression of ATM, Chk2 and p53
# [9] = Mus musculus; concentration at which 80-90% of uninfected lymphoma cells were killed; lowest viability of 24, 48 and 72 h between 10% and 20%; read-out: Concentration used (LD80-90)
# [10] = Mus musculus; read-out: Concentration used (LD80-90)
# [11] = concentration at which 80-90% of uninfected lymphoma cells were killed; lowest viability of 24, 48 and 72 h between 10% and 20%
# [12] = shRNA targeting Bim (Bim-dependence)
# [13] = shRNA targeting p53 (p53-independence)
structure (smiles),measurement,setting,value
O=c1cc(-c2ccc(O)cc2)oc2cc(O)cc(O)c12 [Apigenin],shATM-Chk2-p53 resistance signature,[1]; [8],strong shATM-Chk2-p53 resistance signature
same,induction of DNA damage,[2]; TopoII-deficient cells,failed to induce DNA damage
same,IC (80-90),[3]; [9],0.1 µM
same,shTopoI and shTopoII resistance and sensitivity pattern,[4],shTopoII resistance and shTopoI sensitivity
same,long-term survival,[5]; TopoII deficiency,significant protection
CC[C@@]1(O)C(=O)OCc2c1cc1n(c2=O)Cc2cc3ccccc3nc2-1 [Camptothecin],shATM-Chk2-p53 resistance signature,[1]; [8],significant resistance
same,IC (80-90),[3]; [10],0.0004 µM
O=C(O)CCCc1ccc(N(CCCl)CCCl)cc1 [Chlorambucil],shATM-Chk2-p53 resistance signature,[1]; [8],significant resistance
same,IC (80-90),[3]; [10],6.6 µM
N.N.[Cl][Pt][Cl] [Cisplatin],shATM-Chk2-p53 resistance signature,[1]; [8],significant resistance
same,Concentration used (LD80-90),[3]; [11],3.3 µM
Nc1ncn([C@H]2C[C@H](O)[C@@H](CO)O2)c(=O)n1 [Decitabine],IC (80-90),[3]; [9],0.6 µM
same,log2RI,[6]; [12],≈ 2
same,log2RI,[6]; [13],≈ 0
COc1cccc2c1C(=O)c1c(O)c3c(c(O)c1C2=O)C[C@@](O)(C(=O)CO)C[C@@H]3O[C@H]1C[C@H](N)[C@H](O)[C@H](C)O1 [Doxorubicin],shATM-Chk2-p53 resistance signature,[1],significant resistance
same,IC (80-90),[3]; [9],0.0162 µM
O=C1c2c(O)ccc(O)c2C(=O)c2c(NCCNCCO)ccc(NCCNCCO)c21 [Mitoxantrone],IC (80-90),[3]; [9],0.0004 µM
O=Nc1ccc(O)c2ncccc12 [NSC3852],shATM-Chk2-p53 resistance signature,[1]; [8],strong shATM-Chk2-p53 resistance signature
same,induction of DNA damage,[2]; TopoI-deficient cells,failed to induce DNA damage
same,Concentration used (LD80-90),[3]; [11],1.7 µM
same,shTopoI and shTopoII resistance and sensitivity pattern,[4],"characteristic pattern of resistance, similar to established TopoI poisons camptothecin and irinotecan"
same,long-term survival,[5]; TopoI deficiency,significantly protected
COc1ccc2c(c1OC)C(=O)O[C@@H]2[C@H]1c2c(cc3c(c2OC)OCO3)CCN1C [Noscapine],IC (80-90),[3]; [9],58.1 µM
CCN(CC)CCCCNc1ncc2cc(-c3cc(OC)cc(OC)c3)c(NC(=O)NC(C)(C)C)nc2n1 [PD 173074],IC (80-90),[3]; [9],4.2 µM
CC(=O)O[C@H]1C(=O)[C@@]2(C)[C@H]([C@H](OC(=O)c3ccccc3)[C@]3(O)C[C@H](OC(=O)[C@H](O)[C@@H](NC(=O)c4ccccc4)c4ccccc4)C(C)=C1C3(C)C)[C@]1(OC(C)=O)CO[C@@H]1C[C@@H]2O [Paclitaxel],IC (80-90),[3]; [9],0.008 µM
CO[C@H]1C[C@@H]2CC[C@@H](C)[C@@](O)(O2)C(=O)C(=O)N2CCCC[C@H]2C(=O)O[C@H]([C@H](C)C[C@@H]2CC[C@@H](O)[C@H](OC)C2)CC(=O)[C@H](C)/C=C(\C)[C@@H](O)[C@@H](OC)C(=O)[C@H](C)C[C@H](C)/C=C/C=C/C=C/1C [Rapamycin],IC (80-90),[3]; [9],15 µM
CC[C@H](CO)Nc1nc(NCc2ccccc2)c2ncn(C(C)C)c2n1 [Roscovitine],IC (80-90),[3]; [10],26.7 µM
O=C(CCCCCN1C(=O)c2cccc3cccc(c23)C1=O)NO [Scriptaid],IC (80-90),[3]; [9],0.5 µM
CN(N=O)C(=O)N[C@@H](C=O)[C@@H](O)[C@H](O)[C@H](O)CO [Streptozocin],IC (80-90),[3]; [9],83 µM
Cn1nnc2c(C(N)=O)ncn2c1=O [Temozolomide],IC (80-90),[3]; [9],23.2 µM
S=P(N1CC1)(N1CC1)N1CC1 [ThioTEPA],IC (80-90),"[3]; Mus musculus, read-out: Concentration used (LD80-90)",2.1 µM
CCNC(=O)c1noc(-c2cc(Cl)c(O)cc2O)c1-c1ccc(OC)cc1 [VER-50589],Concentration used (LD80-90),[3]; [11],0.16 µM
CC[C@]1(O)C[C@@H]2CN(CCc3c([nH]c4ccccc34)[C@@](C(=O)OC)(c3cc4c(cc3OC)N(C)[C@H]3[C@@](O)(C(=O)OC)[C@H](OC(C)=O)[C@]5(CC)C=CCN6CC[C@]43[C@@H]65)C2)C1 [Vinblastine],IC (80-90),[3]; [9],0.0025 µM
CC[C@]1(O)C[C@H]2CN(CCc3c([nH]c4ccccc34)[C@@](C(=O)OC)(c3cc4c(cc3OC)N(C=O)[C@H]3[C@@](O)(C(=O)OC)[C@H](OC(C)=O)[C@]5(CC)C=CCN6CC[C@]43[C@@H]65)C2)C1 [Vincristine],IC (80-90),[3]; [9],0.0015 µM
"O=C(CCCCCCC(=O)Nc1ccccc1)NO [Vorinostat, suberoylanilide hydroxamic acid]",IC (80-90),[3]; [9],0.2 µM
same,log2RI,[6]; [12],≈ 2
same,effect of suppression of the Bim transcription regulator Chop on drug response,"[6]; shRNA targeting Chop, FIG. 1d",resistance
same,log2RI,[6]; [13],≈ 0
same,levels of the proapoptotic BH3-only protein Bim,[7],increase
O=c1ncccn1[C@@H]1O[C@H](CO)[C@@H](O)[C@H]1O [Zebularine],IC (80-90),[3]; [9],30 µM
